Source: US8188078B2 (Sanofi-Aventis, priority 2007, dated 2012)
pIC50: −log10 of the molar value. Where a name gives a salt, the structure may show the parent alone.

Assays:
MKN45 cells = test: Test D: cellular proliferation by 14C-thymidine pulse, MKN45 cells; format: cell-based; conditions: cell line not stated (HCT116 or MKN45)
Procedure, shortened: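 MKN45 cells (7500/well, RPMI + 10% foetal calf serum) treated with 10 concentrations, 10000 to 0.3 nM in 3-fold steps, duplicate. 14C-thymidine (0.1 μCi/well) added at 72 h; incorporation counted after 24 h pulse, 96 h total treatment.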

c-MET = molecular target: T1, c-MET (Homo sapiens, UniProt P08581); test: Test A: HTRF Met test in 96-well format; format: biochemical
T1 construct: The recombinant DNA His-Tev-MET (956-1390) in pFastBac(Invitrogen); His (N, cleaved yes); Tev (TEV protease site) (N, cleaved yes); made in house; host or cells: SF21 insect cells (baculovirus, pFastBac)
Procedure, shortened: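 Percent inhibition was calculated from the HTRF 665/620 ratio, using Eu-cryptate anti-phosphotyrosine PT66 plus streptavidin-XL added with EDTA and read after 2 h. The reaction ran 10 min at room temperature: 5 nM tag-cleaved MET (956–1390), 10 µM ATP, 1 µg/ml poly-GAT, and compound from 0.17 nM to 10 µM in 3% DMSO.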

RON = RON (Homo sapiens, UniProt Q04912); test: Test B: HTRF RON test in 96-well format; format: biochemical
Procedure: B) HTRF RON Test in 96-Well Format
The inhibitory potency (IC50) of molecules on the enzymatic activity of kinase phosphorylation RON is determined by the HTRF technique. The activity of the kinase is evaluated by measuring the phosphorylation of the substrate polyGAT by the enzyme, in the presence of ATP.
Final RON 5 nM is incubated in the presence of the molecule to be tested (for a final concentration range from 0.17 nM to 10 μM, final DMSO 3%) in buffer MOPS 10 mM pH 7, DTT 1 mM, Tween 20 0.01%. This pre-incubation is performed in 96 half-well black plates in a volume of 35 μl for 30 minutes at room temperature.
The reaction is initiated by adding 15 μl of a mixture of substrates constituted of biotinylated poly-(GAT) 1 μg/ml final and ATP 10 μM final in the presence of MgCl2 5 mM final for a final volume of 50 μl.
After incubation for 30 min at room temperature, the reaction is stopped with 30 μl of a mixture of Hepes 100 mM final pH 7, potassium fluoride 400 mM final, BSA 0.1% and EDTA 133 mM in the presence of 80 ng per well of antibodies Streptavidin ITS-XL665 Cis-Bio Int. and 18 ng per well of anti-phosphotyrosine PT66 labelled with europium cryptate.
After incubation for 2 hours at room temperature, reading is carried out at 2 wavelengths 620 nm and 665 nm in a Genios TECAN reader for the TRACE/HTRF technique and the percentage inhibition is calculated according to the 665/620 ratios.

[1] = cellular proliferation by 14C-thymidine pulse
[2] = Homo sapiens, MKN-45, cellular proliferation by 14C-thymidine pulse

T1 sequence (P08581 956-1390): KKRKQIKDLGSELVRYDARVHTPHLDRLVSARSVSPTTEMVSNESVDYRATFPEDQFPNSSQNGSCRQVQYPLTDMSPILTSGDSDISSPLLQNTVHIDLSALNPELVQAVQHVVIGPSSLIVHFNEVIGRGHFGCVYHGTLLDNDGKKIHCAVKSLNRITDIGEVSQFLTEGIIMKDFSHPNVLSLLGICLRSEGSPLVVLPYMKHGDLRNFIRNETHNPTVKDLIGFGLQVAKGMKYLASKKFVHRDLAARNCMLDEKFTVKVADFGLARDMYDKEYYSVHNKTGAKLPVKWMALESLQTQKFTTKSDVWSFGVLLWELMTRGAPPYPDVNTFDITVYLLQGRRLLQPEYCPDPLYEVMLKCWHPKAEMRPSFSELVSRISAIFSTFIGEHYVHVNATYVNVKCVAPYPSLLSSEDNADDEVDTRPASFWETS
Chain of RON (Q04912 25-1400): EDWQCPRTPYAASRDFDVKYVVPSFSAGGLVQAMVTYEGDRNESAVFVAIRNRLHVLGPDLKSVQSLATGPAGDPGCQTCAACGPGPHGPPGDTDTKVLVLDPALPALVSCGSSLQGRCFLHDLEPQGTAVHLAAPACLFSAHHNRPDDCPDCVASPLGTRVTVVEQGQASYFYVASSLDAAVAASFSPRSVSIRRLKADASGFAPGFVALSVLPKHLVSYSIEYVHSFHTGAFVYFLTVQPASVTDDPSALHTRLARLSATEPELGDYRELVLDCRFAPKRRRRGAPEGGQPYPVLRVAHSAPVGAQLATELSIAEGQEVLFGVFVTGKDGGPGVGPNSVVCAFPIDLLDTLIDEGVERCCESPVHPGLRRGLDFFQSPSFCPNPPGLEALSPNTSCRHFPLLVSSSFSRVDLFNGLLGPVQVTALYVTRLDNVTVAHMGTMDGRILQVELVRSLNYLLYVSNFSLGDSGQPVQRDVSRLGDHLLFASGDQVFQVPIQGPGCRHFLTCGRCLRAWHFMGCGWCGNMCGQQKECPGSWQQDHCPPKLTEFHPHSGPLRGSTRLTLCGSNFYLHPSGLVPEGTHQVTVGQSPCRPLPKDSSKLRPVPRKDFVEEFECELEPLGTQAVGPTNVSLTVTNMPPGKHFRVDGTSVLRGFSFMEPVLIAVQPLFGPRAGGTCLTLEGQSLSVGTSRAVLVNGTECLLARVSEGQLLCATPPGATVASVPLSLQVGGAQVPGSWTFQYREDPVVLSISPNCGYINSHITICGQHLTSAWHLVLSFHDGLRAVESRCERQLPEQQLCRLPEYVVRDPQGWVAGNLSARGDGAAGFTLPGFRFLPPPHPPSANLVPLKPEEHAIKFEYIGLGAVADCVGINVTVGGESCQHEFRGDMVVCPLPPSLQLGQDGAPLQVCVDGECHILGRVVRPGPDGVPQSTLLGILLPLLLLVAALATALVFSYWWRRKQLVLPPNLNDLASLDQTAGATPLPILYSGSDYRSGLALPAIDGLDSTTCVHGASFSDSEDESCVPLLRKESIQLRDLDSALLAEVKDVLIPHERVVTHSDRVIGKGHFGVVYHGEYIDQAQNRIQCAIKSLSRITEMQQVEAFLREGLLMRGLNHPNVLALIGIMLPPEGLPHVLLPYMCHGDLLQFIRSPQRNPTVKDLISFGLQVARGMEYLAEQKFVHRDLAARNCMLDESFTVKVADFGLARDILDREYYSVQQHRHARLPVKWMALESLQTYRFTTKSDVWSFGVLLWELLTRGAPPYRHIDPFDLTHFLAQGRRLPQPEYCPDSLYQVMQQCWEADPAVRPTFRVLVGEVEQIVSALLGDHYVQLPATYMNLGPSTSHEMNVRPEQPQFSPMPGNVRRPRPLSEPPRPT

SMILES	pIC50 (MKN45 cells; [1])	pIC50 (c-MET)	pIC50 (RON)	pIC50 (MKN45 cells; [2])
CC(Oc1ccc2nc(NC(=O)NCCN3CCOCC3)sc2c1)c1c(Cl)ccc(F)c1Cl (single isomer, unassigned) [Example 25, 1-{6-[(1R*)-(2,6-dichloro-3-fluorophenyl)ethoxy]-1,3-benzothiazol-2-yl}-3-(2-morpholin-4-ylethyl)urea]	> 6.30	> 7.00	> 6.30	–
C[C@@H](Oc1cc2sc(NC(=O)NCCN3CCOCC3)nc2cc1F)c1c(Cl)ccc(F)c1Cl (single isomer, unassigned) [Example 32, 1-{6-[(1R)-(2,6-dichloro-3-fluorophenyl)ethoxy]-5-fluoro-1,3-benzothiazol-2-yl}-3-(2-morpholin-4-ylethyl)urea or 1-{6-[(1S)-(2,6-dichloro-3-fluorophenyl)ethoxy]-5-fluoro-1,3-benzothiazol-2-yl}-3-(2-morpholin-4-ylethyl)urea]	5.00 to 6.30	> 7.00	> 6.30	–
C[C@@H](Oc1cc2sc(NC(=O)NCCN3CCOCC3)nc2cc1F)c1c(Cl)ccc(F)c1Cl (single isomer, unassigned) [Example 33, 1-{6-[(1R)-(2,6-dichloro-3-fluorophenyl)ethoxy]-5-fluoro-1,3-benzothiazol-2-yl}-3-(2-morpholin-4-ylethyl)urea or 1-{6-[(1S)-(2,6-dichloro-3-fluorophenyl)ethoxy]-5-fluoro-1,3-benzothiazol-2-yl}-3-(2-morpholin-4-ylethyl)urea]	5.00 to 6.30	> 7.00	> 6.30	–
CC(Oc1cc2sc(NC(=O)NCCO)nc2cc1F)c1c(Cl)ccc(F)c1Cl (single isomer, unassigned) [Example 99, 1-{6-[(1R*)-1-(2,6-dichloro-3-fluorophenyl)ethoxy]-5-fluoro-1,3-benzothiazol-2-yl}-3-(2-hydroxyethyl)urea]	–	> 7.00	> 6.30	> 6.30
CCN1CCN(CCNC(=O)Nc2nc3cc(F)c(OC(C)c4c(Cl)ccc(F)c4Cl)cc3s2)CC1 (single isomer, unassigned) [Example 101, 1-{6-[(1R*)-1-(2,6-dichloro-3-fluorophenyl)ethoxy]-5-fluoro-1,3-benzothiazol-2-yl}-3-[2-(4-ethylpiperazin-1-yl)ethyl]urea]	–	> 7.00	> 6.30	> 6.30
CCN1CCN(CCNC(=O)Nc2nc3cc(F)c(OC(C)c4c(Cl)ccc(F)c4Cl)cc3s2)CC1 (single isomer, unassigned) [Example 102, 1-{6-[(1S*)-1-(2,6-dichloro-3-fluorophenyl)ethoxy]-5-fluoro-1,3-benzothiazol-2-yl}-3-[2-(4-ethylpiperazin-1-yl)ethyl]urea]	5.00 to 6.30	> 7.00	5.00 to 6.30	–
CC(Oc1ccc2nc(NC(=O)NCCN3CCN(C)CC3)sc2c1)c1c(F)ccc(Cl)c1Cl (single isomer, unassigned) [Example 109, 1-{6-[(1R*)-1-(2,3-dichloro-6-fluorophenyl)ethoxy]-1,3-benzothiazol-2-yl}-3-[2-(4-methylpiperazin-1-yl)ethyl]urea]	–	> 7.00	> 6.30	> 6.30
CC(Oc1cc2sc(NC(=O)NCCN3CCOCC3)nc2cc1F)c1c(F)ccc(Cl)c1Cl (single isomer, unassigned) [Example 112, 1-{6-[(1R*)-1-(2,3-dichloro-6-fluorophenyl)ethoxy]-5-fluoro-1,3-benzothiazol-2-yl}-3-[2-(morpholin-4-yl)ethyl]urea]	–	> 7.00	> 6.30	> 6.30
CC(Oc1cc2sc(NC(=O)NCCN3CCOCC3)nc2cc1F)c1c(F)ccc(Cl)c1Cl (single isomer, unassigned) [Example 113, 1-{6-[(1S*)-1-(2,3-dichloro-6-fluorophenyl)ethoxy]-5-fluoro-1,3-benzothiazol-2-yl}-3-[2-(morpholin-4-yl)ethyl]urea]	5.00 to 6.30	> 7.00	5.00 to 6.30	–
CC(Oc1cc2sc(NC(=O)NCCN3CCN(C)CC3)nc2cc1F)c1c(F)ccc(Cl)c1Cl (single isomer, unassigned) [Example 116, 1-{6-[(1R*)-1-(2,3-dichloro-6-fluorophenyl)ethoxy]-5-fluoro-1,3-benzothiazol-2-yl}-3-[2-(4-methylpiperazin-1-yl)ethyl]urea]	–	> 7.00	> 6.30	> 6.30
CC(Oc1cc2sc(NC(=O)NCCN3CCN(C)CC3)nc2cc1F)c1c(F)ccc(Cl)c1Cl (single isomer, unassigned) [Example 117, 1-{6-[(1S*)-1-(2,3-dichloro-6-fluorophenyl)ethoxy]-5-fluoro-1,3-benzothiazol-2-yl}-3-[2-(4-methylpiperazin-1-yl)ethyl]urea]	5.00 to 6.30	> 7.00	5.00 to 6.30	–
CC(Oc1cc2sc(NC(=O)NCCN3CCCC3)nc2cc1F)c1c(F)ccc(Cl)c1Cl (single isomer, unassigned) [Example 119, 1-{6-[(1R*)-1-(2,3-dichloro-6-fluorophenyl)ethoxy]-5-fluoro-1,3-benzothiazol-2-yl}-3-[2-(pyrrolidin-1-yl)ethyl]urea]	–	> 7.00	5.00 to 6.30	> 6.30
CC(Oc1ccc2nc(NC(=O)NCCN3CCCC3)sc2c1)c1c(F)ccc(Cl)c1Cl (single isomer, unassigned) [Example 121, 1-{6-[(1R*)-(2,3-dichloro-6-fluorophenyl)ethoxy]-1,3-benzothiazol-2-yl}-3-[2-(pyrrolidin-1-yl)ethyl]urea]	> 6.30	> 7.00	> 6.30	–
CC(Oc1ccc2nc(NC(=O)NCCN3CCOCC3)[nH]c2c1)c1c(Cl)cccc1Cl (stereo not drawn) [Example 2, 1-{6-[1-(2,6-dichlorophenyl)ethoxy]-1H-benzimidazol-2-yl}-3-(2-morpholin-4-ylethyl)urea]	–	> 7.00	5.00 to 6.30	5.00 to 6.30
CC(Oc1ccc2nc(NC(=O)NCCN3CCOCC3)[nH]c2c1)c1cc(F)ccc1Cl (stereo not drawn) [Example 3, 1-{6-[1-(2-chloro-5-fluorophenyl)ethoxy]-1H-benzimidazol-2-yl}-3-(2-morpholin-4-ylethyl)urea]	–	> 7.00	5.00 to 6.30	5.00 to 6.30
CC(Oc1ccc2nc(NC(=O)NCCN3CCOCC3)[nH]c2c1)c1c(Cl)ccc(F)c1Cl (stereo not drawn) [Example 4, 4-{2-[({6-[1-(2,6-Dichloro-3-fluorophenyl)ethoxy]-1H-benzimidazol-2-yl}carbamoyl)amino]ethyl}morpholin-4-ium trifluoroacetate]	–	> 7.00	> 6.30	5.00 to 6.30
CC(Oc1cc2[nH]c(NC(=O)NCCN3CCOCC3)nc2cc1F)c1c(Cl)cccc1Cl (stereo not drawn) [Example 5, 1-{6-[1-(2,6-dichlorophenyl)ethoxy]-5-fluoro-1H-benzimidazol-2-yl}-3-(2-morpholin-4-ylethyl)urea]	–	> 7.00	> 6.30	5.00 to 6.30
O=C(NCCN1CCOCC1)Nc1nc2ccc(OCc3c(Cl)cccc3Cl)cc2s1 [Example 10, 1-{6-[(2,6-dichlorobenzyl)oxy]-1,3-benzothiazol-2-yl}-3-(2-morpholin-4-ylethyl)urea]	–	> 7.00	5.00 to 6.30	5.00 to 6.30
CC(Oc1ccc2nc(NC(=O)NCCN3CCOCC3)sc2c1)c1c(Cl)cccc1Cl (stereo not drawn) [Example 17, 1-{6-[1-(2,6-dichlorophenyl)ethoxy]-1,3-benzothiazol-2-yl}-3-(2-morpholin-4-ylethyl)urea]	–	> 7.00	> 6.30	5.00 to 6.30
CC(Oc1ccc2nc(NC(=O)NCCN3CCOCC3)sc2c1)c1c(F)cccc1F (stereo not drawn) [Example 18, 1-{6-[1-(2,6-difluorophenyl)ethoxy]-1,3-benzothiazol-2-yl}-3-(2-morpholin-4-ylethyl)urea]	–	> 7.00	5.00 to 6.30	5.00 to 6.30
CC(Oc1ccc2nc(NC(=O)NCCN3CCOCC3)sc2c1)c1ccccc1C(F)(F)F (stereo not drawn) [Example 19, 1-(2-morpholin-4-ylethyl)-3-(6-{1-[2-(trifluoromethyl)phenyl]ethoxy}-1,3-benzothiazol-2-yl)urea]	–	> 7.00	5.00 to 6.30	< 5.00
